Like-named read-outs stand apart in the source and are kept apart here.
Assays:
[1] = Human liver microsome (HLM) assay; type: in vitro ADME; conditions: human liver microsomes, 5 μM test compound
Experimental: Human Liver Microsome (HLM) Assay Compound metabolism in human liver microsomes was measured by LC-MS analytical assay procedures as follows. […] (3 tubes per test compound-triplicate). […] The samples were then transferred to separate polypropylene microcentrifuge tubes and centrifuged at 14000 g for 10 min. (Fisher Micro […] M0017580). For each replicate (#1-3) at each timepoint (0 and 2 h), an aliquot sample of each test compound was combined into a single HPLC vial insert (6 total samples) for LC-MS analysis, which is described below.

[2] = Determination of inhibitor concentration in mouse plasma after intraperitoneal and oral dosing; type: in vivo
Experimental: Blood collection was via ocular bleed at 0.5, 1, 4 hr with the final time point, 7 hour, via intracardiac puncture. The blood was centrifuged to collect plasma, which was then stored at −80° C. until analysis. Samples were prepared for analysis using an internal standard and sodium hydroxide. After vortexing, ethyl acetate was added and mixed for 15-20 minutes at ambient temperature. […] The samples were then analyzed via HPLC or LC-MS. Compound levels were quantitated by generating a standard curve of known compound concentration in mouse plasma.

[3] = tested on: human umbilical vein endothelial cells (HUVEC); assay: HUVEC proliferation assay (VEGF-stimulated, MTT); type: cell-based; conditions: Homo sapiens, HUVEC; read-out: HUVEC IC50
[4] = molecular target: unphosphorylated VEGF-R2Δ50 (FLVK) (Homo sapiens, UniProt P35968, DEL940-989/E990V); assay: VEGF-R2 coupled spectrophotometric assay, unphosphorylated VEGF-R2Δ50 (FLVK); conditions: for Ki: FLVK Ki, Table 1
Chain of unphosphorylated VEGF-R2Δ50 (FLVK) (P35968 with tags, fused parts or gaps DEL940-989/E990V limits assumed): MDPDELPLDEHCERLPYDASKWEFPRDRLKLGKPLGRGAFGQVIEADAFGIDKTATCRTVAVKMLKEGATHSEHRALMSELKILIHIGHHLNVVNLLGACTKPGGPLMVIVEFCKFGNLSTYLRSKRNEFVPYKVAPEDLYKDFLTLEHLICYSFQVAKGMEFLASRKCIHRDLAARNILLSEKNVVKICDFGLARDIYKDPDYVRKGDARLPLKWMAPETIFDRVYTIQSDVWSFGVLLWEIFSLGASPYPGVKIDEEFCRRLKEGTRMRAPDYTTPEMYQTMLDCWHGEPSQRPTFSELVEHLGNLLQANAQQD

[5] = IP, 25 mg/kg, vehicle PEG400:H2O pH 2.3 60:40
[6] = PO, 50 mg/kg, vehicle PEG400:H2O pH 2.3 60:40
[7] = female, IP, 25 mg/kg, vehicle PEG400:H2O pH 2.3 60:40, read-out: Cmin (7 hr conc.)
[8] = female, PO, 50 mg/kg, vehicle PEG400:H2O pH 2.3 60:40, read-out: Cmin (7 hr conc.)
[9] = IP, 25 mg/kg, vehicle PEG400:H2O pH 2.3 30:70
[10] = PO, 50 mg/kg, vehicle PEG400:H2O pH 2.3 30:70
[11] = female, IP, 25 mg/kg, vehicle PEG400:H2O pH 2.3 30:70, read-out: Cmin (7 hr conc.)
[12] = female, PO, 50 mg/kg, vehicle PEG400:H2O pH 2.3 30:70, read-out: Cmin (7 hr conc.)
[13] = PO, 25 mg/kg, vehicle PEG400:H2O pH 2.3 30:70
[14] = female, PO, 25 mg/kg, vehicle PEG400:H2O pH 2.3 30:70, read-out: Cmin (7 hr conc.)

Structure (SMILES): O=C(N[C@@H]1C[C@H]1c1ccccc1)c1ccccc1Sc1ccc2c(/C=C/c3ccccn3)n[nH]c2c1 (racemic) [Example 34]
- % remain (HLM, 2 h) [1]: 28%

Structure (SMILES): O=C(Nc1cccc(Oc2ccc3c(/C=C/c4ccccc4)n[nH]c3c2)c1)c1ccccc1 [Example 4(a), N-[3-(3-Styryl-1H-indazol-6-yloxy)-phenyl]-benzamide]
- % remain (HLM, 2 h) [1]: 35%

Structure (SMILES): O=C(c1cccc(NC(=O)c2ccccn2)c1)c1ccc2c(/C=C/c3ccccc3)n[nH]c2c1 [Example 19(k), 6-[3-(Pyridin-2-ylcarboxamido)benzoyl]-3-E-styryl-1H-indazole]
- % remain (HLM, 2 h) [1]: 58%
- AUClast [2, 5]: 428 ng·h/mL
- Cmax [2, 5]: 149 ng/mL
- plasma half-life (T1/2) [2, 5]: 2.2 h
- AUClast [2, 6]: 19 ng·h/mL
- Cmax [2, 6]: 8 ng/mL
- plasma half-life (T1/2) [2, 6]: 2.2 h
- concentration at 7 h [2, 7]: 15 ng/mL
- concentration at 7 h [2, 8]: 4 ng/mL

Structure (SMILES): CC(=O)Nc1cccc(Sc2ccc3c(/C=C/c4ccccc4)n[nH]c3c2)c1 [Example 20(a), 6-(3-Acetamido-phenylsulfanyl)-3-styryl-1H-indazole]
- % remain (HLM, 2 h) [1]: 52%

Structure (SMILES): CNC(=O)c1ccccc1Sc1ccc2c(/C=C/c3ccccn3)n[nH]c2c1 [Example 33(a), 6-[2-(methylcarbamoyl)phenylsulfanyl]-3-E-[2-(pyridin-2-yl)ethenyl]indazole]
- % remain (HLM, 2 h) [1]: 29%
- AUClast [2, 9]: 13813 ng·h/mL
- Cmax [2, 9]: 13794 ng/mL
- AUClast [2, 10]: 19067 ng·h/mL
- Cmax [2, 10]: 23562 ng/mL
- Cmax ([2]; female, PO, 25 mg/kg, vehicle 0.5% CMC, read-out: Cmax): 721 ng/mL
- Cmax ([2]; female, PO, 100 mg/kg, vehicle 0.5% CMC, read-out: Cmax): 3560 ng/mL

Structure (SMILES): CCCNC(=O)c1ccccc1Sc1ccc2c(/C=C/c3ccccn3)n[nH]c2c1 [Example 35(a), 6-[2-(n-Propylcarbamoyl)phenylsulfanyl]-3-E-[2-(pyridin-2-yl)ethenyl]-1H-indazole]
- % remain (HLM, 2 h) [1]: 33%
- AUClast [2, 9]: 2032 ng·h/mL
- Cmax [2, 9]: 2138 ng/mL
- plasma half-life (T1/2) [2, 9]: 1.4 h
- AUClast [2, 10]: 2445 ng·h/mL
- Cmax [2, 10]: 1780 ng/mL
- plasma half-life (T1/2) [2, 10]: 0.9 h
- concentration at 7 h [2, 11]: 24 ng/mL
- concentration at 7 h [2, 12]: 10 ng/mL

Structure (SMILES): COc1cccc(CNC(=O)c2ccccc2Sc2ccc3c(/C=C/c4ccccn4)n[nH]c3c2)c1 [Example 35(aa)]
- % remain (HLM, 2 h) [1]: 15%
- AUClast [2, 13]: 4036 ng·h/mL
- plasma half-life (T1/2) [2, 13]: 2.1 h
- concentration at 7 h [2, 14]: 106 ng/mL

Structure (SMILES): O=C(NCc1ccco1)c1ccccc1Sc1ccc2c(/C=C/c3ccccn3)n[nH]c2c1 [Example 35(bb), 6-[2-((fur-2-yl)Methylcarbamoyl)phenylsulfanyl]-3-E-[2-(pyridin-2-yl)ethenyl]-1H-indazole]
- % remain (HLM, 2 h) [1]: 8%

Structure (SMILES): O=C(NC1CCC1)c1ccccc1Sc1ccc2c(/C=C/c3ccccn3)n[nH]c2c1 [Example 35(c), 6-[2-(Cyclobutylcarbamoyl)phenylsulfanyl]-3-E-[2-(pyridin-2-yl)ethenyl]-1H-indazole]
- % remain (HLM, 2 h) [1]: 17%
- AUClast [2, 9]: 9408 ng·h/mL
- Cmax [2, 9]: 1976 ng/mL
- plasma half-life (T1/2) [2, 9]: 3.2 h
- AUClast [2, 10]: 4744 ng·h/mL
- plasma half-life (T1/2) [2, 10]: 4.9 h
- concentration at 7 h [2, 11]: 465 ng/mL
- concentration at 7 h [2, 12]: 321 ng/mL

Structure (SMILES): C#CCNC(=O)c1ccccc1Sc1ccc2c(/C=C/c3ccccn3)n[nH]c2c1 [Example 35(cc), 6-[2-(2-Propynylcarbamoyl)phenylsulfanyl]-3-E-[2-(pyridin-2-yl)ethenyl]-1H-indazole]
- % remain (HLM, 2 h) [1]: 31%
- AUClast [2, 9]: 2223 ng·h/mL
- plasma half-life (T1/2) [2, 9]: 1.4 h
- AUClast [2, 10]: 1718 ng·h/mL
- plasma half-life (T1/2) [2, 10]: 0.9 h
- concentration at 7 h [2, 11]: 6 ng/mL
- concentration at 7 h [2, 12]: 5 ng/mL

Structure (SMILES): Cn1cccc1C(=O)NNC(=O)c1ccccc1Sc1ccc2c(/C=C/c3ccccn3)n[nH]c2c1 [Example 35(e), 6-[2-((1-Methylpyrrol-2-ylhydrazido)carbonyl)phenylsulfanyl]-3-E-[2-(pyridin-2-yl)ethenyl]-1H-indazole]
- % remain (HLM, 2 h) [1]: 34%
- AUClast [2, 9]: 2409 ng·h/mL
- plasma half-life (T1/2) [2, 9]: 1.8 h
- AUClast [2, 10]: 1503 ng·h/mL
- plasma half-life (T1/2) [2, 10]: 0.9 h
- concentration at 7 h [2, 11]: 65 ng/mL
- concentration at 7 h [2, 12]: 6 ng/mL

Structure (SMILES): C=C(C)CNC(=O)c1ccccc1Sc1ccc2c(/C=C/c3ccccn3)n[nH]c2c1 [Example 35(ee), 6-[2-(2-Methyl-2-propenylcarbamoyl)phenylsulfanyl]-3-E-[2-(pyridin-2-yl)ethenyl]-1H-indazole]
- % remain (HLM, 2 h) [1]: 13%
- AUClast [2, 9]: 546 ng·h/mL
- plasma half-life (T1/2) [2, 9]: 1.5 h
- AUClast [2, 13]: 157 ng·h/mL
- plasma half-life (T1/2) [2, 13]: 14.6 h
- concentration at 7 h [2, 11]: 2 ng/mL
- concentration at 7 h [2, 14]: 9 ng/mL

Structure (SMILES): O=C(NCc1ccccc1F)c1ccccc1Sc1ccc2c(/C=C/c3ccccn3)n[nH]c2c1 [Example 35(f)]
- % remain (HLM, 2 h) [1]: 15%

Structure (SMILES): C=CCNC(=O)c1ccccc1Sc1ccc2c(/C=C/c3ccccn3)n[nH]c2c1 [Example 35(u), 6-[2-(Allylcarbamoyl)phenylsulfanyl]-3-E-[2-(pyridin-2-yl)ethenyl]-1H-indazole]
- % remain (HLM, 2 h) [1]: 27%

Structure (SMILES): CCONC(=O)c1cccc(F)c1Sc1ccc2c(/C=C/c3ccccn3)n[nH]c2c1 [Example 37(a), 6-[6-Fluoro-2-(ethoxycarbamoyl)phenylsulfanyl]-3-E-[2-(pyridin-2-yl)ethenyl]-1H-indazole]
- % remain (HLM, 2 h) [1]: 21%

Structure (SMILES): CNC(=O)c1ccccc1Nc1ccc2c(/C=C/c3ccccn3)n[nH]c2c1 [Example 39(a), 6-[2-(Methylcarbamoyl)phenylamino]-3-E-[2-(pyridin-2-yl)ethenyl]-1H-indazole]
- IC50 [3]: 1.4 nM
- plasma half-life (T1/2) [2, 13]: 1.4 h
- AUC(0-t) ([2]; female, PO, 25 mg/kg, vehicle PEG400:H2O pH 2.3 30:70): > 14800 ng·h/mL
- Cmax ([2]; female, PO, 25 mg/kg, vehicle PEG400:H2O pH 2.3 30:70, read-out: Cmax): > 4000 ng/mL
- concentration at 7 h [2, 14]: 219 ng/mL
- inhibition at 0.05 µM ([4]; read-out: FLVK % inhibition): 53%

Structure (SMILES): O=C(Nc1cccc(C(=O)c2ccc3c(/C=C/c4ccccn4)n[nH]c3c2)c1)c1ccncc1 [Example 41(b), 6-[3-(Pyridin-4-ylcarboxamido)benzoyl]-3-E-[2-(pyridin-2-yl)ethenyl]-1H-indazole]
- plasma half-life (T1/2) [2, 5]: 4.7 h
- AUClast [2, 6]: 759 ng·h/mL
- plasma half-life (T1/2) [2, 6]: 1.1 h
- AUC(0-t) ([2]; female, IP, 25 mg/kg, vehicle PEG400:H2O pH 2.3 60:40): > 5870 ng·h/mL
- Cmax ([2]; female, IP, 25 mg/kg, vehicle PEG400:H2O pH 2.3 60:40, read-out: Cmax): > 1000 ng/mL
- concentration at 7 h [2, 7]: 412 ng/mL
- concentration at 7 h [2, 8]: 6 ng/mL
- Ki [4]: 0.26 nM

Structure (SMILES): O=C(Cc1cc(F)cc(F)c1)Nc1cccc(C(=O)c2ccc3c(/C=C/c4ccccn4)n[nH]c3c2)c1 [Example 41(f), 6-[3-(3,5-Difluorophenylacetamido)benzoyl]-3-E-[2-(pyridin-2-yl)ethenyl]-1H-indazole]
- % remain (HLM, 2 h) [1]: 59%

Structure (SMILES): Cn1nc(C(C)(C)C)cc1C(=O)Nc1cccc(C(=O)c2ccc3c(/C=C/c4ccccn4)n[nH]c3c2)c1 [Example 41(n), 6-[3-((3-t-Butyl-1-methyl-1H-pyrazol-5-yl)carboxamido)benzoyl]-3-E-[2-(pyridin-2-yl)ethenyl]-1H-indazole]
- AUClast [2, 9]: 9408 ng·h/mL
- Cmax [2, 9]: 1976 ng/mL
- plasma half-life (T1/2) [2, 9]: 3.2 h
- AUClast [2, 10]: 9066 ng·h/mL
- Cmax [2, 10]: 2245 ng/mL
- plasma half-life (T1/2) [2, 10]: 1.9 h
- concentration at 7 h [2, 11]: 465 ng/mL
- concentration at 7 h [2, 12]: 253 ng/mL
- Ki [4]: 0.2 nM

Structure (SMILES): COc1cc(C(=O)Nc2cccc(C(=O)c3ccc4c(/C=C/c5ccccn5)n[nH]c4c3)c2)cc(Cl)n1 [Example 41(u), 6-[3-((2-Chloro-6-methoxypyridin-4-yl)carboxanido)benzoyl]-3-E-[2-(pyridin-2-yl)ethenyl]-1H-indazole]
- AUClast [2, 13]: 875 ng·h/mL
- Cmax [2, 13]: 224 ng/mL
- plasma half-life (T1/2) [2, 13]: 5.6 h
- concentration at 7 h [2, 14]: 51 ng/mL
- Ki [4]: 0.08 nM

Structure (SMILES): O=C(Nc1cccc(C(=O)c2ccc3c(-c4nc5cccnc5[nH]4)n[nH]c3c2)c1)c1ccccc1 [Example 42(d), 6-(3-Benzaniidobenzoyl)-3-(3H-imidazo[4,5-b]pyridin-2-yl)-1H-indazole]
- AUClast [2, 5]: 1774 ng·h/mL
- plasma half-life (T1/2) [2, 5]: 1.4 h
- AUClast [2, 6]: 46 ng·h/mL
- plasma half-life (T1/2) [2, 6]: BLQ
- concentration at 7 h [2, 7]: 31 ng/mL
- concentration at 7 h [2, 8]: 18 ng/mL
- Ki [4]: 1.7 nM

— patent publication US6534524B1, “Indazole compounds and pharmaceutical compositions for inhibiting protein kinases, and methods for their use” (Agouron Pharmaceuticals, Inc., priority 1999, dated 2003)
